One data set deals with TMD8 and SU-DHL4 cells. As to the kind of experiment: Cell cycle analysis (PI, flow cytometry). The format is cell-based. The following applies: 5 μM or 10 μM, 24 h; two independent experiments. The protocol:
For cell cycle analysis, cells were washed twice with cold PBS and fixed in 70% ethanol overnight at 4°C. Fixed cells were collected at 1800 rpm for 10 min and stained with PBS containing PI and DNase-free RNase A (Sigma-Aldrich) for 1h at room temperature in the dark. DNA content was measured by BD LSRII flow cytometer and data were analyzed in FloJo. […]
Committee of Changhai Hospital, the Second Military Medical University.
(§1) Immunohistochemistry (IHC)
(§2) Formalin-fixed paraffin -embedded tumor xenografts were sectioned, dewaxed and submitted to antigen retrieval. The anti- Ki67 (proteintech, 27309-1) antibody was used at a 1:500 dilution.
Biotin-conjugated secondary antibodies (MXB biotechnologies, KIT-9710) were used. Then avidin/biotin peroxidase (MXB biotechnologies, KIT-9710) was applied to the slides. Color was developed with diaminobenzoate chromogen peroxidase substrate (MXB biotechnologies, MAX007TM) and counterstained with […] (MXB biotechnologies, MAX007TM). Pictures were obtained using NanoZoomer-S60 microscope ([…]).
In general terms: A flow cytometer gives signals particle by particle.

The next data set concerns the target T1, BCL10 (Homo sapiens, UniProt O95999).
T1 sequence (O95999 1-233): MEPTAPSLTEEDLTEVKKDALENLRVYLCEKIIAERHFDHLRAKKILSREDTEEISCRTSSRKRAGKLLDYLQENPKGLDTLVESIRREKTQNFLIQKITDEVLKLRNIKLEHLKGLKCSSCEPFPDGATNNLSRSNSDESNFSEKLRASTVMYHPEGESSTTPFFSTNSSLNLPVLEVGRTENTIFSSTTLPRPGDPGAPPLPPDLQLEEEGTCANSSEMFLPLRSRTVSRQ
As to the kind of experiment: In vitro BCL10 filamentation assay (negative-stain electron microscopy). The following applies: MBP-BCL10 and peptide premixed at 1:1 or 1:2 molar ratio, RT 30 min, then TEV cleavage. The format is biochemical. The protocol: MBP-BCL10 was expressed and purified as previously described. MBP-BCL10 and BCL10 peptide inhibitors were premixed at a 1:1 or 1:2 molar ratio at RT for 30 minutes before adding TEV to cleave the MBP tag. 5 μL of reaction mixture was applied to copper grids (Beijing Zhongjingkeyi Technology Co., Cat. No. BZ10024a), where it remained for 1 minute and was then negatively stained with 3% uranyl acetate for 1 minute, air-dried and imaged with a JEM-1230 TEM at 100 keV.

The target in the next data set is T2, MBP-BCL10 (Homo sapiens, UniProt O95999).
T2 construct: made in house
As to the kind of experiment: Co-immunoprecipitation of peptide with MBP-BCL10. The format is binding. The following applies: biotinylated peptide, streptavidin beads, 4 °C. The procedure: (§3) MBP-Bcl10 was expressed and purified as previously described {Qiao, 2013 #85}. Purified
(§4) mM NaCl, 1% NP-40) at 4 °C for 1 hour, followed by addition of 5% BSA blocked S t re ptavidin (SAV)
(§5) Immunoprecipitant were washed 5 times with IP buffer and separated by SDS-PA G E . […]
(§6) hActin- F: 5’-[…]-3’
(§7) hIL6-R: 5’- […]-3 ’.
(§8) hBcl10-F: 5’-[…] TAGAAA-3’

Data set [1] in a line: Tolerability in xenograft mice (body weight, histology of major organs). The format is in vivo, NCG mice. The protocol:
Mouse xenograft experiments:
Six-week-old female NOD prkdc-/- IL-2Rg-/- (NCG) mice purchased from GemPharmatech Co., Lt d we re raised in a SPF- level Laboratory Animal Room. Low -passage 5x106 human TMD8, SU-DHL- 6 or 1x10^7 OCl-LY1 cells at 100μl were premixed with 100μl Matrigel (Corning Biocoat, cat. # 354234) and inoculated subcutaneously into the right flank of mice. When tumors reached an average size of 150 mm3, mice were randomly assigned into treatment groups (10 mg /kg DRI-BCL10- P4) or control groups (5 mg /kg BCL10- Ctl). Peptides were reconstituted in 5% DMSO/PBS and administered by i.v. injection. Tumor volumes were monitored by a digital caliper every other day and calculated using the formula: (smallest diameter2 x largest diameter)/2. Mice were weighed every day and sacrificed at the end of the treatment. T umors and main organs were harvested and we i ghte d at the moment of death. All animal experiments were approved by the Animal Institute Committee of Changhai Hospital, the Second Military Medical University.
as §1, §2
Biotin-conjugated secondary antibodies (MXB biotechnologies, KIT-9710) were used. […]

Another data set deals with HBL1 cells. As to the kind of experiment: Intracellular pharmacokinetics, BCL10-P4 versus DRI-BCL10-P4. The protocol: as §3, §4, §5, §6, §7, §8
hBcl10-R: 5’-[…] T-3’
1x105 HBL1, TMD8, OCl-LY 1 , OCl-LY 1 , U2932, MD901 or RCK8 cells were seeded in 12-well plate
wa sh e d and lysed with RIPA buffer.
immunoblotting with Streptavidin (Cell signaling, cat. #3999S). […]

The values that follow come from paper PMC7546004, “Targeting BCL10 by small peptides for the treatment of B cell lymphoma” (Theranostics, 2020).

Square brackets hold non-standard residues; d marks the D form. Peptide text beside a SMILES is read from it.

Regarding `CC[C@@H](C)[C@@H](NC(=O)[C@@H](CCCCN)NC(=O)[C@H](NC(=O)[C@@H](Cc1c[nH]c2ccccc12)NC(=O)[C@@H](Cc1ccccc1)NC(=O)[C@@H](CCC(N)=O)NC(=O)[C@@H](CC(N)=O)NC(=O)[C@@H](CCCNC(=N)N)NC(=O)[C@@H](CCCNC(=N)N)NC(=O)[C@@H](CCSC)NC(=O)[C@@H](CCCCN)NC(=O)[C@@H](Cc1c[nH]c2ccccc12)NC(=O)[C@@H](CCCCN)NC(=O)[C@@H](CCCCN)NC(=O)[C@@H](CCCNC(=N)N)NC(=O)[C@H](NC(=O)[C@@H](CO)NC(=O)[C@@H](CO)NC(=O)[C@@H](CCCNC(=N)N)NC(=O)[C@@H](CCCCN)NC(=O)[C@@H](CCCNC(=N)N)NC(=O)[C@@H](C)NC(=O)CNC(=O)[C@@H](CCCCN)NC(=O)[C@@H](CC(C)C)NC(=O)[C@@H](CC(C)C)NC(=O)[C@@H](CC(=O)O)NC(=O)[C@@H](Cc1ccc(O)cc1)NC(=O)[C@@H](CC(C)C)NC(=O)[C@@H](CCC(N)=O)NC(=O)[C@H](N)CCC(=O)O)[C@H](C)O)[C@H](C)CC)C(=O)N[C@H](CCC(N)=O)C(=O)N[C@H](CCCNC(=N)N)C(=O)N[C@H](CC(=O)O)C(=O)O` [DRI-BCL10-P4] (H-[dE][dQ][dL][dY][dD][dL][dL][dK]G[dA][dR][dK][dR][dS][dS][dT][dR][dK][dK][dW][dK][dM][dR][dR][dN][dQ][dF][dW][dI][dK][dI][dQ][dR][dD]-OH), the “cell cycle profile of TMD8 and SU-DHL4 cells” value in the data set on TMD8 and SU-DHL4 cells is on record as “cell cycle arrest”. For the same compound, on BCL10, the “BCL10 filament formation (EM)” value is on record as “effectively disrupted BCL10 filament formation”. Further, the “interaction with MBP-BCL10 (co-immunoprecipitation)” value at MBP-BCL10 is “interacted with BCL10”. The “adverse effects in the mice (body weight)” value in data set [1] (10 mg/kg Q.d., i.v., Figure 7C-F) is listed as “without inducing notable adverse effects”. Further, the “histological examination of the major organs (H&E)” value in data set [1] (10 mg/kg daily for 11 days, Figure S8D) was “did not result in discernible damage to these organs”. Further, in the data set with HBL1 cells, the “intracellular level after the first 4 h (intracellular stability)” value is reported as “maintained for a much longer time”; the “uptake by HBL1 cells and level within the first 4 h” value is recorded as “similarly taken up”.
